Experimental data published in US20110152332A1, “Pesticidal Heterocyclic Compounds” (Bayer CropScience AG, priority 2009, published 2011).

Assays:
[1] = system: Cucurbit leaf beetle (Aulacophora femoralis); test: Test against cucurbit leaf beetle (Aulacophora femoralis), leaf dip; type: in vivo; details: active compound concentration 100 ppm; second instar larvae on dipped cucumber leaves; after 7 days
Description: (§1) Unless described otherwise, the test solutions were prepared as follows:
(§2) The active compound, 1 part by weight of the active compound was admixed with the solvent in the above described amount which contains the emulsifying agent in the above described amount. The mixture was then diluted with water to specific concentration.
(§3) In order to prepare the test solution containing the active compound, 1 part by weight of the active compound was admixed with 3 parts by weight of the solvent dimethyl formamide which contains 1 part by weight of the emulsifying agent polyoxyethylene alkylphenyl ether. This mixture is then diluted with water to the specific concentration.
(§4) Solvent: dimethyl formamide, 3 parts by weight; emulsifying agent: polyoxyethylene alkylphenyl ether, 1 part by weight
Leaves of cucumber were immersed in the test solution at the appropriate concentration, and the leaves were dried in air. The leaves were then put in a plastic cup containing sterilized black soil and five Aulacophora femoralis at second instar larvae were released in the cup. The cups were placed in a temperature-controlled chamber at 25° C. After 7 days, the number of dead larvae was counted, and thus the insecticidal activity was calculated. An insecticidal activity of 100% means that all larvae were killed, whereas an insecticidal activity of 0% means that no larva was killed.

[2] = system: Tobacco cutworm (Spodoptera litura) larvae; test: Test against tobacco cutworm (Spodoptera litura) larvae, leaf dip; type: in vivo; details: active compound concentration 100 ppm; third instar larvae on dipped sweet potato leaves; after 7 days
Description: as §1, §2, §3, §4
Leaves of sweet potato were immersed in the test solution at the appropriate concentration, and the leaves were dried in air. The leaves were then placed in a petri dish having a diameter of 9 cm, and ten Spodoptera litura at third instar larvae were released therein. The petri dishes were placed in a temperature-controlled chamber at 25° C. After 2 days and 4 days more sweet potato leaves were added. After 7 days, the number of dead larvae was counted to calculate the insecticidal activity. An insecticidal activity of 100% means that all larvae were killed, whereas an insecticidal activity of 0% means that no larva was killed. In the current test, the results of two petri dishes for each treatment were averaged.

Row | SMILES | insecticidal activity [1] [%] | insecticidal activity [2] [%]
1 | O=C(NCc1ccc(N2CC(c3cc(Cl)cc(Cl)c3)(C(F)(F)F)OC2=O)cc1C(F)(F)F)C1CC1 (centres unmarked) [Compound 1-5] | 100 | 100
2 | CCNC(=O)NCc1ccc(N2CC(c3cc(Cl)cc(Cl)c3)(C(F)(F)F)OC2=O)cc1C(F)(F)F (centres unmarked) [Compound 1-13] | – | 100
3 | CC(C)(C)OC(=O)NCc1ccc(N2CC(c3cc(Cl)cc(Cl)c3)(C(F)(F)F)OC2=O)cc1C(F)(F)F (centres unmarked) [Compound 1-14] | 100 | 100
4 | NCc1ccc(N2CC(c3cc(Cl)c(Cl)c(Cl)c3)(C(F)(F)F)OC2=O)cc1C(F)(F)F (centres unmarked) [Compound 1-15] | – | 100
5 | CCCC(=O)NCc1ccc(N2CC(c3cc(Cl)c(Cl)c(Cl)c3)(C(F)(F)F)OC2=O)cc1C(F)(F)F (centres unmarked) [Compound 1-18] | – | 100
6 | O=C(NCc1ccc(N2CC(c3cc(Cl)c(Cl)c(Cl)c3)(C(F)(F)F)OC2=O)cc1C(F)(F)F)C1CC1 (centres unmarked) [Compound 1-19] | 100 | 100
7 | O=C(CC1CC1)NCc1ccc(N2CC(c3cc(Cl)c(Cl)c(Cl)c3)(C(F)(F)F)OC2=O)cc1C(F)(F)F (centres unmarked) [Compound 1-20] | – | 100
8 | CSCC(=O)NCc1ccc(N2CC(c3cc(Cl)c(Cl)c(Cl)c3)(C(F)(F)F)OC2=O)cc1C(F)(F)F (centres unmarked) [Compound 1-22] | 100 | 100
9 | CC(C)(C)OC(=O)NCc1ccc(N2CC(c3cc(Cl)c(Cl)c(Cl)c3)(C(F)(F)F)OC2=O)cc1C(F)(F)F (centres unmarked) [Compound 1-28] | 100 | 100
10 | CC(=O)NCc1ccc(N2CC(c3cccc(C(F)(F)F)c3)(C(F)(F)F)OC2=O)cc1C(F)(F)F (centres unmarked) [Compound 1-72] | 100 | 100
11 | CCCC(=O)NCc1ccc(N2CC(c3cccc(C(F)(F)F)c3)(C(F)(F)F)OC2=O)cc1C(F)(F)F (centres unmarked) [Compound 1-74] | 100 | 100
12 | O=C(CC(F)(F)F)NCc1ccc(N2CC(c3cccc(C(F)(F)F)c3)(C(F)(F)F)OC2=O)cc1C(F)(F)F (centres unmarked) [Compound 1-77] | 100 | 100
13 | CC(=O)NCc1ccc(N2CC(c3cc(C(F)(F)F)cc(C(F)(F)F)c3)(C(F)(F)F)OC2=O)cc1C(F)(F)F (centres unmarked) [Compound 1-128] | 100 | 100
14 | O=C(NCc1ccc(N2CC(c3cc(C(F)(F)F)cc(C(F)(F)F)c3)(C(F)(F)F)OC2=O)cc1C(F)(F)F)C1CC1 (centres unmarked) [Compound 1-131] | 100 | 100
15 | CC(=O)NCc1ccc(N2CC(c3cc(C(F)(F)F)cc(C(F)(F)F)c3)(C(F)(F)F)OC2=O)cc1Cl (centres unmarked) [Compound 1-142] | 100 | 100
16 | CCC(=O)NCc1ccc(N2CC(c3cc(C(F)(F)F)cc(C(F)(F)F)c3)(C(F)(F)F)OC2=O)cc1Cl (centres unmarked) [Compound 1-143] | 100 | 100
17 | CSCC(=O)NCc1ccc(N2CC(c3cc(C(F)(F)F)cc(C(F)(F)F)c3)(C(F)(F)F)OC2=O)cc1Cl (centres unmarked) [Compound 1-148] | 100 | –
18 | C[S+]([O-])CC(=O)NCc1ccc(N2CC(c3cc(C(F)(F)F)cc(C(F)(F)F)c3)(C(F)(F)F)OC2=O)cc1Cl (centres unmarked) [Compound 1-149] | 100 | 100
19 | COCCC(=O)NCc1ccc(N2CC(c3cc(C(F)(F)F)cc(C(F)(F)F)c3)(C(F)(F)F)OC2=O)cc1Cl (centres unmarked) [Compound 1-151] | – | 100
20 | CC(=O)NCc1ccc(N2CC(c3cc(C(F)(F)F)cc(C(F)(F)F)c3)(C(F)(F)F)OC2=O)cc1C (centres unmarked) [Compound 1-156] | – | 100
21 | CCC(=O)N[C@H](C)c1ccc(N2CC(c3cc(Cl)c(Cl)c(Cl)c3)(C(F)(F)F)OC2=O)cc1 (some centres unmarked) [Compound 1-371-b] | – | 100
22 | CCC(=O)NC1CCc2cc(N3CC(c4cc(Cl)cc(Cl)c4)(C(F)(F)F)OC3=O)ccc21 (centres unmarked) [Compound 4-3] | – | 100
